The source of these data is patent publication US9107879B1, “Methods of increasing the cytotoxicity of chemotherapeutic agents with multisubstrate inhibitors of histone, protein-lys, polyamine acetylation, and polyamine metabolism” (Vanderbilt University, priority 2010, dated 2015).

The structures appear in SMILES notation. Bounds are passed on as bounds.

The subject of series [1] is endogenous HATs associated with solubilized chromatin. Particulars: literature (Bandyopadhyay et al 2009; Parello et al. 1990); cited from earlier work.
For series [2] the following is noted: 5 mM, approximately 10 mg/kg, twice per week for 3 weeks. How it is done:
They injected a second set of 4 mice with 100 μl of spd-3a (5 mM, approximately 10 mg/kg, or about 0.25 mM initial blood concentration), twice per week for 3 weeks.

The subject of series [3] is DU145 prostate cancer cells. The class given is cell-based. Particulars: camptothecin 5 nM; 2a 10 μM. How it is done:
(§1) Cells were plated in 96-well plates at 2000 cells per well and treated with the indicated doses of spd-3a. Cell viability was measured by the MTS assay 3 days later.

In series [4] the test system is BT20 breast cancer cell line (TNBC). Nature of the series: 3-day viability assay. The class given is cell-based. Particulars: spd-2a increasing doses; camptothecin 5 nM. The text has this:
The effect of spd-2a on the BT20 breast cancer cell line derived form a spontaneous TNBC with wild-type BrCal was examined. […] Having previously established that spd-2a is a therapy sensitizer, the present inventors then examined the combined effects of spd-2a and camptothecin (the basis for the chemotherapeutic drug, Irinotecan).

Series [5] relates to H358 cells. Nature of the series: nucleotide excision repair assay (thymidine dimer slot blot). Particulars: 40 J/m2 UVC then 50 μM 1a; within 24 hours (untreated cells 50%). The class given is cell-based. How it is done:
Also shown are controls for no treatment (“c” minus 1a) or treatment with 1a only (“c” plus 1a). Each lane represents 60 μg protein. […] Each lane represents 60 μg protein.
For NER, a slot blot immunoassay was used to detect the loss of thymidine dimers from the DNA of UVC treated cells as previously described. An antibody specific for cyclobutane pyrimidine dimers, the major photoproduct produced by UVC treatment, was purchased from Kamiya Biomedical Co(Seattle, Wash.; anti-thymidine dimer, clone KTM53) and used at 1:40 dilution.
DNA repair can promote cell survival following DNA damage. Nucleotide excision repair (NER), which requires histone acetylation (Cazzalini et al., 2008, 36: 1713-22) removes bulky DNA adducts such as the intrastrand guanine-adenine crosslinks caused by cisplatin or the intrastrand thymidine dimers produced by UVC radiation. We assayed NER in the presence or absence of 50 μM 1a using an immunoblot analysis of thymidine dimers in cellular DNA prepared from cells at fixed times after exposure to 40 J/m^2UVC radiation. […] The results support a model in which acetylation of the core histones, accompanied by localized relaxation of chromatin structure, may be necessary to initiate DNA repair, possibly by allowing access of DNA to multiprotein repair complex involved in nucleotide excision repair, or by promoting recruitment of those factors. […]

Series [6] relates to H358 cells. Nature of the series: trypan blue exclusion viability assay. The class given is cell-based. Particulars: human. The protocol:
Cells were either labeled immediately before treatment (starting DNA synthesis rate), or subjected to the indicated treatments and then pulsed on successive days until day 4. DNA synthesis is represented as the percent of starting DNA synthesis rate. Viability was determined for each treatment condition 24 hours post-start of treatment by the trypan blue exclusion assay, with percentages of viable cells indicated to the right of the graph. […]
Cell viability, measured 18 hours after the start of each treatment by the trypan blue exclusion assay, a measure of cellular membrane integrity, confirmed that single agent treatment with either 1a or camptothecin had essentially no effect on cell viability (≧96% viability for untreated cells or single agent-treated cells).
The present inventors used 96-well viability assays as described in Saadatmandi et al (Cancer Gene Therapy (2002) 9:930-9) to examine the effect of 1a on DNA synthesis in H358 cells, as well as the combined effects of 1a and chemotherapeutic agents. […] Following the 6-hour labeling, cells were harvested and incorporation of [^3H]-thymidine was determined by scintillation counting. […] We measured cell viability 24 hours after the start of each treatment by the trypan blue exclusions assay, a measure of cellular membrane breakdown.

A further series concerns DLD-1 colon cancer cells. The experiment in a line: 96-well MTS viability assay. The class given is cell-based. Particulars: 3 days. The protocol:
as §1
DLD-1 cells or H358 cells were plated in 96-well plates at 2000 cells per well and treated with the indicated doses of (A) spm-3 or (B) spm-2. (C) Cell viability was measured by the MTS assay 3 days later. Similar experiment using GT41 fibroblasts with spm2 or spm 3. Each assay point represents an average of duplicates.
In general terms: Tetrazolium dyes change colour on reduction, which living cells bring about.

As for `CC(=O)NCCSCC(=O)NCCCNCCCCN` [3a], the “inhibitory activity against endogenous HAT” value in series [1] is given as “lower inhibitory effect than Spd-2a”. Besides, in series [2], the body weight result is recorded as “did not lose weight”. The signs of toxicity result in series [2] (4 mice) is listed as “no signs of distress or illness”.

Consider `CC[C@@]1(O)C(=O)OCc2c1cc1n(c2=O)Cc2cc3ccccc3nc2-1` [camptothecin], for which the “effect on cell viability, single agent” value in series [3] is “minimal effects”. In series [4], the “3-day viability, single agent” value was “no effect”.

Turning to `CC(C)(COP(=O)(O)OP(=O)(O)OC[C@H]1O[C@@H](n2cnc3c(N)ncnc32)[C@H](O)[C@@H]1OP(=O)(O)O)[C@@H](O)C(=O)NCCC(=O)NCCSCC(=O)NCCCNCCCCN` [1a, spermidine[N1]-CoA], the “decrease of thymidine dimers in DNA” value in the series on H358 cells [5] is 40%. For the same compound, the “cell viability, trypan blue exclusion” value in the series on H358 cells [6] (18 h) and in the series with H358 cells [6] (24 h) was not below 96% each time.

On to `CC(=O)NCCSCC(=O)NCCCNCCCCNCCCN` [spm-3], for which, in the series with DLD-1 colon cancer cells, the “suppression of cell growth and viability, single agent” value is “effective as single agents”.
